The values that follow are results of earlier work, collected in US20180147234A1, “COMPOSITIONS AND METHODS FOR TREATMENT OF FIBROMYALGIA” (Luitpold Pharmaceuticals, Inc., priority 2015, published 2018).

The conditions of the series: in vivo.

As to “polyglucose sorbitol carboxymethyl ether-coated non-stoichiometric magnetite [ferumoxytol]”, the Blood half-life was 10 to 14 h.
